{"source": "paper PMC4992173", "about": "“Divergent synthesis and identification of the cellular targets of deoxyelephantopins” (Nature Communications, 2016)", "target": "T1, Zinc finger protein 346 (ZNF346) (Homo sapiens, UniProt Q9UL40)", "T1 construct": "1,522 proteins were enriched from MCF7 cells by 10 μM probe 24c; endogenous in cells; host or cells: MCF7", "T1 sequence (Q9UL40 whole entry)": "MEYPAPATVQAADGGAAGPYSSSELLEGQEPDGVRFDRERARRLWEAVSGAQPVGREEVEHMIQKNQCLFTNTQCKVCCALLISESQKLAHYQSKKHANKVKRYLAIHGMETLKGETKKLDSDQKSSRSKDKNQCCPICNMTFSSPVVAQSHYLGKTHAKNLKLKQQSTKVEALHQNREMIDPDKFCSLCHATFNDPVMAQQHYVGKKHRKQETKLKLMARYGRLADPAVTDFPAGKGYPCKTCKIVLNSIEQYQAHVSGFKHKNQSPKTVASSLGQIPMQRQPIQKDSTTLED", "experiment": "SILAC competitive profiling with probe 24c in MCF7 lysates: ZNF346", "assay_type": "binding", "conditions": "1 h, then 10 µM 24c", "source_text": "In our efforts to determine the direct molecular targets of deoxyelephantopin we first performed a gel-based competitive in situ proteomic profiling assay[41] […] While the greater conformational flexibility of probe 24c could potentially lead to more promiscuous target engagement relatively to deoxyelephantopin, it was favoured based on the fact that an alkyne moiety appended to the rigid scaffold of deoxyelephantopin may hinder some of its interactions. MCF7 cells were pretreated with various concentrations of deoxyelephantopin for 4 h, harvested, lysed and the lysates were treated with the fluorogenic probe 24c-Cy3 (10 μM; Supplementary Fig. 10). […] Furthermore, cells were pretreated with 20 μM concentration of deoxyelephantopin or 24c and the proteomic profiles were compared (Fig. 6b, Supplementary Fig. 11). Multiple bands were detected that were equally competed by both DEP and 24c, thus again confirming that 24c can be used as an acceptable clickable analogue of deoxyelephantopin in pulldown assays. Having established the optimal labelling conditions by SDS–PAGE, we next carried out a mass spectrometry-based competitive profiling assay[42] coupled with the method of stable isotope labelling of amino acids in culture (SILAC)[43]. […]\nvisualization were performed as described above. Images were quantified with ImageJ and kinetics values were calculated using GraphPad Prism (V6.03). […]"}
{"compound": "C=C(C)C(=O)O[C@H]1CC2=C[C@@H](C/C(C)=C/[C@H]3OC(=O)C(=C)[C@H]13)OC2=O", "note": "[deoxyelephantopin]", "values": [{"measurement": "SILAC ratio 20 µM Deoxyelephantopin/DMSO with 24c", "result": 0.22}]}
